Common to all, as to assay type: cell-based, human
For assay [1], the system named is p-ERK in MIA PaCa2 cells (Kras G12C mutation). Nature of the assay: Cell p-ERK detection experiment (HTRF) in MIA PaCa2 cells. As to conditions: compound 2 hours. How it is done:
MIA PaCa2 was a human pancreatic cancer cell line with Kras G12C mutation, cultured in 10% FBS+2.5% Horse serum DMEM medium. The cells in the logarithmic growth phase were taken, digested with enzyme EDTA, collected, counted and 2.5E4 cells were seeded in a 96-well cell culture plate, cultured overnight. DMSO was used to prepare 1000× compound 3.16-fold gradient concentration stock solution, and medium was used to dilute 200-fold to 5× compound stock solution. On the second day after cell seeding, 5× compound stock solution was added to each cell culture well, the final concentration was 1×, and DMSO content was 0.1%. DMSO was used as an experimental control (control). After the compound was added and cultured for two hours, the remaining medium was removed. 50 ul cell lysis buffer was added to each well, mixed and incubated for 30 minutes, then 16 ul of the mixture was transferred to a 96-well plate with a non-transparent white bottom, and 16 ul cell lysis buffer was added to blank wells. After the completion of the transfer, 4 ul p-ERK HTRF antibody mixture was added to each well, incubated for 4 hours and the fluorescence value was read. The compound inhibition rate IR (%)=(RLU control-RLU compound)/(RLU control-RLU blank)×100% was calculated, Prism 8 four-parameter method was used to fit the compound's gradient dilution concentration and the corresponding cell proliferation inhibition rate, and the IC50 value was calculate.
(In TR-FRET formats the signal depends on donor and acceptor labels being close together.)

The subject of assay [2] is NCI-H358 cells (Kras G12C mutation). Nature of the assay: Cell proliferation inhibition experiment, 3D model, CellTiter-Glo (NCI-H358). As to conditions: NCI-H358, 3D sphere plate, 5 days, 2% FBS. An outline of the steps:
(§1)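 Luminescent ATP read-out (CellTiter-Glo) after 5-day compound treatment gave % inhibition relative to DMSO control and medium blank, fitted four-parameter for IC50. Spheroids were formed overnight in 2% FBS medium from 800 H358 or 400 A549 cells per well; dilutions were 3.16-fold, final DMSO 0.1%.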
In general terms: Cellular ATP, detected with luciferase, serves as a proxy for viable cell number.

Assay [3] concerns A549 cells (Kras G12S mutation). The assay is described as follows: Cell proliferation inhibition experiment, 3D model, CellTiter-Glo (A549). To be noted: A549, 3D sphere plate, 5 days, 2% FBS. An outline of the steps: as §1

Broadly, the IC50 is the point on the concentration scale where inhibition reaches its midpoint. Lower therefore signals greater potency in that assay. Consider `C=CC(=O)N1CCN2c3nc(=O)n(-c4c(C)ccnc4C(C)C)c4nc(-c5cccc(F)c5F)c(Cl)c(c34)OC[C@@H]2C1` (atropisomer, axis not shown) [Compound Z47-2], for which the results for the IC50 in assay [1], in assay [2] and in assay [3] were 314 nM, 42 nM and above 10000 nM, respectively.
For `C=CC(=O)N1CCN2c3nc(=O)n(-c4c(C)ccnc4C(C)C)c4nc(-c5c(O)cccc5F)c(F)c(c34)OC[C@H]2C1` (atropisomer, axis not shown) [Compound Z73-1] the same measures were 116 nM, 9 nM and above 10000 nM.
In the same order, the values of `C=CC(=O)N1CCN2c3nc(=O)n(-c4c(C)ccnc4C(C)C)c4nc(-c5cccc(Cl)c5F)c(Cl)c(c34)OC[C@H]2C1` (atropisomer, axis not shown) [Compound Z91-1] are 93 nM, 30 nM and 10100 nM.
In the same order, the values of `C=CC(=O)N1CCN2c3nc(=O)n(-c4nccnc4C(C)C)c4nc(-c5ccccc5F)c(Cl)c(c34)OC[C@H]2C1` (atropisomer, axis not shown) [Compound Z104-2] are 185 nM, 28 nM and above 10000 nM.
Take `C=CC(=O)N1CCN2c3nc(=O)n(-c4nccnc4C(C)C)c4nc(-c5c(O)cccc5F)c(Cl)c(c34)OC[C@H]2C1` (atropisomer, axis not shown) [Compound Z105-1]: the concentration for half-maximal inhibition (IC50) was 395 nM in assay [1]; 38 nM in assay [2]; above 30000 nM in assay [3] (Homo sapiens, A549, 120 h).
In the same order, the values of `C=CC(=O)N1CCN2c3nc(=O)n(-c4nccnc4C(C)C)c4nc(-c5c(O)cccc5F)c(F)c(c34)OC[C@H]2C1` (atropisomer, axis not shown) [Compound Z107-1] are 226 nM, 19 nM and above 30000 nM.
As to `C=CC(=O)N1CCN2c3nc(=O)n(-c4c(C)ccnc4C(C)C)c4nc(-c5c(O)cccc5F)c(Cl)c(c34)OC[C@@H]2C1` (single isomer, unassigned) [Compound Z24-1], the figures for the IC50 in assay [1], in assay [2] and in assay [3] were 53 nM, 16 nM and above 10000 nM, respectively.
For the compound `C=CC(=O)N1CCN2c3nc(=O)n(-c4c(C)ccnc4C(C)C)c4nc(-c5cccc(C(F)(F)F)c5F)c(Cl)c(c34)OC[C@@H]2C1` (single isomer, unassigned) [Compound Z57-2], the IC50 in assay [1] (Homo sapiens, MIA PaCa-2, 2 h) is 27 nM; in assay [2], 3 nM; in assay [3], above 10000 nM.
Take `C=CC(=O)N1CCN2c3nc(=O)n(-c4c(C)ccnc4C(C)C)c4nc(-c5ccc(F)cc5F)c(Cl)c(c34)OC[C@H]2C1` (single isomer, unassigned) [Compound Z76-1]: the IC50 in assay [1] was 109 nM; in assay [2] it was 40 nM; in assay [3] (Homo sapiens, A549, 120 h), above 10000 nM.
For `C=CC(=O)N1CCN2c3nc(=O)n(-c4c(C)ccnc4C(C)C)c4nc(-c5cccc(F)c5F)c(Cl)c(c34)OC[C@H]2C1` (single isomer, unassigned) [Compound Z77-1] the same measures were 58 nM, 26 nM and above 10000 nM.
Regarding `C=CC(=O)N1CCN2c3nc(=O)n(-c4c(C)ccnc4C(C)C)c4nc(-c5cccc(Cl)c5F)c(Cl)c(c34)OC[C@@H]2C1` (single isomer, unassigned) [Compound Z82-1], the values for the 50% inhibitory concentration (IC50) in assay [1], in assay [2] and in assay [3] were 407 nM, 23 nM and 3560 nM, respectively.
In the case of `C=CC(=O)N1CCN2c3nc(=O)n(-c4c(C)ccnc4C(C)C)c4nc(-c5cccc(Cl)c5F)c(Cl)c(c34)OC[C@@H]2C1` (single isomer, unassigned) [Compound Z82-2], the 50% inhibitory concentration (IC50) in assay [1] came to 23 nM; in assay [2], 2 nM; in assay [3], 8300 nM.
In the case of `C=CC(=O)N1CCN2c3nc(=O)n(-c4c(C)ccnc4C(C)C)c4nc(-c5c(F)cccc5OC)c(Cl)c(c34)OC[C@H]2C1` (single isomer, unassigned) [Compound Z83-1], the IC50 in assay [1] came to 9 nM; in assay [2] it was 1 nM; in assay [3] (Homo sapiens, A549, 120 h), 12100 nM.
Take `C=CC(=O)N1CCN2c3nc(=O)n(-c4c(C)ccnc4C(C)C)c4nc(-c5c(F)cccc5OC)c(Cl)c(c34)OC[C@H]2C1` (single isomer, unassigned) [Compound Z83-2]: the values for the 50% inhibitory concentration (IC50) in assay [1], in assay [2] and in assay [3] were 67 nM, 15 nM and 9770 nM, respectively.
For the compound `C=CC(=O)N1CCN2c3nc(=O)n(-c4c(C)ccnc4C(C)C)c4nc(-c5ccccc5F)c(Cl)c(c34)OC[C@H]2C1` (single isomer, unassigned) [Compound Z87-1], the concentration for half-maximal inhibition (IC50) in assay [1] was 158 nM; in assay [2], 47 nM; in assay [3] (Homo sapiens, A549, 120 h) it was 10200 nM.
For `C=CC(=O)N1CCN2c3nc(=O)n(-c4c(C)ncnc4C(C)C)c4nc(-c5c(O)cccc5F)c(Cl)c(c34)OC[C@H]2C1` (single isomer, unassigned) [Compound Z88-1] the same measures were 356 nM, 100 nM and above 10000 nM.
For `C=CC(=O)N1CCN2c3nc(=O)n(-c4c(C)ncnc4C(C)C)c4nc(-c5c(O)cccc5F)c(Cl)c(c34)OC[C@H]2C1` (single isomer, unassigned) [Compound Z88-2], the 50% inhibitory concentration (IC50) in assay [1] is 27 nM; in assay [2], 3 nM; in assay [3], above 10000 nM.
As to `C=CC(=O)N1CCN2c3nc(=O)n(-c4c(C)ncnc4C(C)C)c4nc(-c5ccccc5F)c(Cl)c(c34)OC[C@H]2C1` (single isomer, unassigned) [Compound Z95-1], the half-inhibitory concentration (IC50) stood at 248 nM in assay [1]; 52 nM in assay [2]; 11300 nM in assay [3] (Homo sapiens, A549, 120 h).
For `C=CC(=O)N1CCN2c3nc(=O)n(-c4c(C)ncnc4C(C)C)c4nc(-c5cccc(F)c5F)c(Cl)c(c34)OC[C@H]2C1` (single isomer, unassigned) [Compound Z96-1] the same measures were 195 nM, 59 nM and above 10000 nM.
As to `C=CC(=O)N1CCN2c3nc(=O)n(-c4c(OC)ncnc4C(C)C)c4nc(-c5c(O)cccc5F)c(F)c(c34)OC[C@H]2C1` (single isomer, unassigned) [Compound Z111-1], the half-inhibitory concentration (IC50) was 186 nM in assay [1] (Homo sapiens, MIA PaCa-2, 2 h); 34 nM in assay [2] (Homo sapiens, NCI-H358, 120 h); above 30000 nM in assay [3] (Homo sapiens, A549, 120 h).
In the case of `C=CC(=O)N1CCN2c3nc(=O)n(-c4c(C)ccnc4C(C)C)c4nc(-c5c(O)cccc5F)c(C)c(c34)OC[C@H]2C1` [Compound Z72], the IC50 in assay [1] (Homo sapiens, MIA PaCa-2, 2 h) is 63 nM; in assay [2] (Homo sapiens, NCI-H358, 120 h), 5 nM; in assay [3] (Homo sapiens, A549, 120 h) it was above 10000 nM.
`C=CC(=O)N1CCN2c3nc(=O)n(-c4c(C)ccnc4C(C)C)c4nc(-c5c(O)cccc5F)c(C=C)c(c34)OC[C@H]2C1` [Compound Z74]: the half-maximal inhibitory concentration (IC50) in assay [1] (Homo sapiens, MIA PaCa-2, 2 h) is 128 nM; in assay [2] (Homo sapiens, NCI-H358, 120 h), 16 nM; in assay [3] (Homo sapiens, A549, 120 h) it was above 10000 nM.
With `C=CC(=O)N1CCN2c3nc(=O)n(-c4c(C)ccnc4C(C)C)c4nc(-c5c(F)cccc5OC)c(Cl)c(c34)OC[C@H]2C1` [Compound Z75], the half-inhibitory concentration (IC50) in assay [1] (Homo sapiens, MIA PaCa-2, 2 h) was 112 nM; in assay [2] (Homo sapiens, NCI-H358, 120 h), 2 nM; in assay [3] (Homo sapiens, A549, 120 h), above 10000 nM.
In the same order, the values of `C=CC(=O)N1CCN2c3nc(=O)n(-c4c(C)ccnc4C(C)C)c4nc(-c5c(F)cccc5F)c(Cl)c(c34)OC[C@H]2C1` [Compound Z80] are 19 nM, 3 nM and above 10000 nM.
In the same order, the values of `C=CC(=O)N1CCN2c3nc(=O)n(-c4c(C)ncnc4C(C)C)c4nc(-c5c(O)cccc5F)c(Cl)c(c34)OC[C@H]2C1` [Compound Z88] are 86 nM, 4 nM and above 10000 nM.
In the same order, the values of `C=CC(=O)N1CCN2c3nc(=O)n(-c4c(C)ccnc4C(C)C)c4nc(-c5ccccc5Cl)c(Cl)c(c34)OC[C@H]2C1` [Compound Z90] are 19 nM, 4 nM and 7780 nM.
Regarding `C=CC(=O)N1CCN2c3nc(=O)n(-c4c(C)ccnc4C(C)C)c4nc(-c5cccc(Cl)c5F)c(Cl)c(c34)OC[C@H]2C1` [Compound Z91], the IC50 in assay [1] stood at 16 nM; in assay [2] it was 2 nM; in assay [3], 4220 nM.
With `C=CC(=O)N1CCN2c3nc(=O)n(-c4c(C)ccnc4C(C)C)c4nc(-c5cc(O)ccc5F)c(Cl)c(c34)OC[C@H]2C1` [Compound Z118], the half-maximal inhibitory concentration (IC50) in assay [1] (Homo sapiens, MIA PaCa-2, 2 h) was 166 nM; in assay [2] (Homo sapiens, NCI-H358, 120 h), 19 nM; in assay [3] (Homo sapiens, A549, 120 h) it was above 30000 nM.
